Molecules are shown by their SMILES. “And” between values parts separate entries of the source, which are not always exact repeats. Identical values can stand only once. Like-named read-outs stand apart in the source and are kept apart here.

The target of the experiment is T1, Recombinant human Ku heterodimer (Homo sapiens, UniProt P12956+P13010).
T1 construct: made in house; host or cells: insect cells infected with recombinant baculovirus
As to the kind of experiment: Ku-DNA binding assay. The text has this:
Ku is a DNA end-binding protein that is essential for the repair of DNA double strand breaks via the NHEJ pathway. The mechanism of DNA binding by Ku is via a toroid structure that encircles double-stranded DNA from a terminus.

Setting [1] is: Table 2, synthesized derivatives, several values in a cell = separate determinations, read-out: IC50.
[2] abbreviates: Table 1, purchased second generation inhibitors, several values in a cell = separate determinations, read-out: IC50.

T1 sequence (P12956 whole entry): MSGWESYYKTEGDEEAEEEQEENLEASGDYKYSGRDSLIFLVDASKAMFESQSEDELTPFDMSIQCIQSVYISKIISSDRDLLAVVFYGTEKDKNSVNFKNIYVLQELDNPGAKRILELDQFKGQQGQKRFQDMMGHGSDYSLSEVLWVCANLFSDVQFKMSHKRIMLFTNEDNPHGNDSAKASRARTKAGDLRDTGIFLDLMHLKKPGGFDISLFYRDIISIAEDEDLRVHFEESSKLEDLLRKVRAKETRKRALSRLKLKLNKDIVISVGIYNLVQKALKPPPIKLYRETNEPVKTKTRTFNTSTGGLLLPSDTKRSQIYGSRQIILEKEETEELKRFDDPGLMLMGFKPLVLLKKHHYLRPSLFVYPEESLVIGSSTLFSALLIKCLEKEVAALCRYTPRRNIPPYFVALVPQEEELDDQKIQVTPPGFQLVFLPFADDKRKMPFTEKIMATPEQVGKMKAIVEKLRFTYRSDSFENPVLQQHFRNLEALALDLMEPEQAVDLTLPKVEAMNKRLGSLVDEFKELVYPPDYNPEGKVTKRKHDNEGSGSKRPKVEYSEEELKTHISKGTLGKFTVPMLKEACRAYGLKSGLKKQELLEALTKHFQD
T1 sequence (P13010 whole entry): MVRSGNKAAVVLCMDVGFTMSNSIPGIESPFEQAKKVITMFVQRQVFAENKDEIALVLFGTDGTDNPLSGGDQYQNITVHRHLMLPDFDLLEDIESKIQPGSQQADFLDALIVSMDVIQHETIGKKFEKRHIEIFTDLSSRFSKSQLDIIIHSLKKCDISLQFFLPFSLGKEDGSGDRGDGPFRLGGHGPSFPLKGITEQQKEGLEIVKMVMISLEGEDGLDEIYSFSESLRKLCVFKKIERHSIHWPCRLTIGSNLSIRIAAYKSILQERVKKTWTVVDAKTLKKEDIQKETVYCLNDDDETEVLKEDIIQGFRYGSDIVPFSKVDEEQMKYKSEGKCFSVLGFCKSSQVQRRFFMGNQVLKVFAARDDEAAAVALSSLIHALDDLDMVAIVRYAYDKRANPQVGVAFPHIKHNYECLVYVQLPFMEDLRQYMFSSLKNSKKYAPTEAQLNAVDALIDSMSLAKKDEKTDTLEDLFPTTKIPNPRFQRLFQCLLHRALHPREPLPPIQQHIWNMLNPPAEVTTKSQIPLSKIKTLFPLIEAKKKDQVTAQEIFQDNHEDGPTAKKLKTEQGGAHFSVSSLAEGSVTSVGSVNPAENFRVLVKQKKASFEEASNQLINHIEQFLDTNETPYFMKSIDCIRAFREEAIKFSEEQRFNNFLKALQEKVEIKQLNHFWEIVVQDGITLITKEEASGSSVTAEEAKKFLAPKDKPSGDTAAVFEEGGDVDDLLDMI

Consider `COc1cccc(NC(=O)c2cc(-c3ccc(CC4C(=O)N(c5cccc(C(=O)O)c5)N=C4C)s3)ccc2Cl)c1` (centres unmarked) [NG-03-207, 3-(4-((5-(4-chloro-3-((3-Methoxyphenyl)carbamoyl)phenyl)thiophen-2-yl)methyl)-3-methyl-5-oxo-4,5-dihydro-1H-pyrazol-1-yl)benzoic acid], for which, under setting [1], the IC50 was 7 µM. In the case of `C#CCOC(=O)c1cccc(-c2ccc(/C=C3\C(=O)N(c4ccc(Cl)c(C(=O)O)c4)N=C3C)o2)c1` [compound 7026, reference compound], the IC50 under setting [2] came out at 16.9 µM. For the compound `CCOC(=O)c1cccc(N2N=C(C)C(Cc3ccc(-c4ccc(Cl)c(C(=O)Nc5cccc(OC)c5)c4)o3)C2=O)c1` (centres unmarked) [NG-02-131, Ethyl 3-(4-((5-(4-chloro-3-((3-methoxyphenyl)carbamoyl)phenyl)furan-2-yl)methyl)-3-methyl-5-oxo-4,5-dihydro-1H-pyrazol-1-yl)benzoate], the IC50 under setting [1] came out at 3 µM.

Turning to `CC1=NN(c2cccc(C(=O)O)c2)C(=O)/C1=C\c1ccc(-c2ccc(Cl)c(C(=O)NCc3ccccc3)c2)o1` [NG-03-270, (Z)-3-(4-((5-(3-(Benzylcarbamoyl)-4-chlorophenyl)furan-2-yl)methylene)-3-methyl-5-oxo-4,5-dihydro-1H-pyrazol-1-yl)benzoic acid], the half-inhibitory concentration (IC50) under setting [1] amounted to 10 µM. In the case of `CC1=NN(c2cccc(C(=O)O)c2)C(=O)C1Cc1ccc(-c2ccc(Cl)c(C(=O)NCc3ccc(F)cc3)c2)o1` (centres unmarked) [NG-01-65, 3-(4-((5-(4-Chloro-3-((4-fluorobenzyl)carbamoyl)phenyl)furan-2-yl)methyl)-3-methyl-5-oxo-4,5-dihydro-1H-pyrazol-1-yl)benzoic acid], the IC50 under setting [1] worked out at 8 µM.

As to `CC1=NN(c2cccc(C(=O)O)c2)C(=O)/C1=C\c1ccc(-c2ccccc2C(=O)O)o1` [compound 0949, reference compound], the IC50 under setting [2] came to 91 µM. With `COc1cccc(NC(=O)c2ccc(CC3C(=O)N(c4cccc(C(=O)O)c4)N=C3C)o2)c1` (centres unmarked) [NG-02-165, 3-(4-((5-((3-Methoxyphenyl)carbamoyl)furan-2-yl)methyl)-3-methyl-5-oxo-4,5-dihydro-1H-pyrazol-1-yl)benzoic acid], the IC50 under setting [1] turned out to be 11 µM.

Consider `CC1=NN(c2cccc(C(=O)O)c2)C(=O)/C1=C\c1ccc(-c2ccc(Cl)c(C(=O)O)c2)s1` [NG-03-224, (Z)-5-(5-((1-(3-Carboxyphenyl)-3-methyl-5-oxo-1,5-dihydro-4H-pyrazol-4-ylidene)methyl)thiophen-2-yl)-2-chlorobenzoic acid], for which the IC50 under setting [1] turned out to be 15 µM. As for `COc1ccc(NC(=O)c2cc(-c3ccc(CC4C(=O)N(c5cccc(C(=O)O)c5)N=C4C)o3)ccc2Cl)cc1OC` (centres unmarked) [NG-03-206, 3-(4-((5-(4-Chloro-3-((3,4-dimethoxyphenyl)carbamoyl)phenyl)furan-2-yl)methyl)-3-methyl-5-oxo-4,5-dihydro-1H-pyrazol-1-yl)benzoic acid], the IC50 under setting [1] was determined as 7.5 µM. Take `COc1ccc(NC(=O)c2cc(-c3ccc(/C=C4\C(=O)N(c5cccc(C(=O)O)c5)N=C4C)o3)ccc2Cl)cc1OC` [NG-03-189, (Z)-3-(4-((5-(4-chloro-3-((3,4-dimethoxyphenyl)carbamoyl)phenyl)furan-2-yl)methylene)-3-methyl-5-oxo-4,5-dihydro-1H-pyrazol-1-yl)benzoic acid]: the IC50 under setting [1] was 14 µM. For `CCCOC(=O)c1cc(-c2ccc(/C=C3\C(=O)N(c4cccc(C(=O)O)c4)N=C3C)o2)ccc1Cl` [compound 2727, reference compound], under setting [2], the IC50 was 7.6 µM and 5.7 µM. Regarding `COc1cccc(NC(=O)c2cc(-c3ccc(CC4C(=O)N(c5ccc(C(=O)O)cc5)N=C4C)s3)ccc2Cl)c1` (centres unmarked) [NG-03-238, 4-(4-((5-(4-Chloro-3-((3-methoxyphenyl)carbamoyl)phenyl)thiophen-2-yl)methyl)-3-methyl-5-oxo-4,5-dihydro-1H-pyrazol-1-yl)benzoic acid], the IC50 under setting [1] worked out at 14 µM. With `CC1=NN(c2cccc(C(=O)O)c2)C(=O)/C1=C\c1ccc(-c2ccc(Cl)c(C(=O)NCC3CC3)c2)o1` [NG-01-70, (Z)-3-(4-((5-(4-Chloro-3-((cyclopropylmethyl)carbamoyl)phenyl)furan-2-yl)methylene)-3-methyl-5-oxo-4,5-dihydro-1H-pyrazol-1-yl)benzoic acid], the IC50 under setting [1] was 25 µM and > 50 µM. For the compound `CC1=NN(c2cccc(C(=O)O)c2)C(=O)/C1=C\c1ccc(-c2ccc(Cl)c(C(=O)OCc3ccccc3Cl)c2)o1` [compound 2249, reference compound], the IC50 under setting [2] turned out to be 2.9 µM. As for `CCOC(=O)c1ccc(N2N=C(C)/C(=C/c3ccc(-c4ccc(Cl)c(C(=O)Nc5cccc(OC)c5)c4)s3)C2=O)cc1` [NG-03-235, Ethyl (Z)-4-(4-((5-(4-chloro-3-((3-methoxyphenyl)carbamoyl)phenyl)thiophen-2-yl)methylene)-3-methyl-5-oxo-4,5-dihydro-1H-pyrazol-1-yl)benzoate], under setting [1], the IC50 came to 8.75 µM. As for `CC1=NN(c2cccc(C(=O)O)c2)C(=O)/C1=C\c1ccc(-c2cccc(C(=O)OC(C)C)c2)o1` [compound 3125, reference compound], the IC50 under setting [2] was 11 µM and 3.5 µM. As to `CC1=NN(c2ccc(Cl)c(C(=O)O)c2)C(=O)/C1=C\c1ccc(-c2ccc3c(c2)C(=O)OC3)o1` [compound 4770, reference compound], the IC50 under setting [2] worked out at 21.8 µM. For `CC1=NN(c2cccc(C(=O)O)c2)C(=O)C1Cc1ccc(-c2ccc(Cl)c(C(=O)NCC3CC3)c2)s1` (centres unmarked) [NG-03-231, 3-(4-((5-(4-Chloro-3-((cyclopropylmethyl)carbamoyl)phenyl)thiophen-2-yl)methyl)-3-methyl-5-oxo-4,5-dihydro-1H-pyrazol-1-yl)benzoic acid], the IC50 under setting [1] came out at 12 µM. For `COc1cccc(NC(=O)c2cc(-c3ccc(/C=C4\C(=O)N(c5cccc(-c6nnn[nH]6)c5)N=C4C)o3)ccc2Cl)c1` [NG-02-201/ NG-03-244], under setting [1], the IC50 turned out to be 4 µM. Regarding `CCCCOC(=O)c1cc(-c2ccc(/C=C3\C(=O)N(c4ccc(Cl)c(C(=O)O)c4)N=C3C)o2)ccc1Cl` [compound 0530, reference compound], the IC50 reads like this: (IC50 (concentration that inhibits 50% of the binding activity), titration into Ku-DNA binding reactions (FIG. 1, FIG. 2)) approximately 5 µM; under setting [2], 5.6 µM. On to `CCOC(=O)c1cccc(-c2ccc(/C=C3\C(=O)N(c4ccc(Cl)c(C(=O)O)c4)N=C3C)o2)c1` [compound 3278, reference compound], for which the IC50 under setting [2] is 4.3 µM and 8.1 µM.

Consider `COc1cc([N+](=O)[O-])ccc1-c1ccc(/C=C2\C(=O)N(c3cccc(C(=O)O)c3)N=C2C)o1` [compound 0814, reference compound], for which the IC50 under setting [2] turned out to be 190 µM. As for `CC1=NN(c2ccc(C(=O)O)cc2)C(=O)/C1=C\c1ccc(-c2ccc(Cl)c(C(=O)O)c2)s1` [NG-03-234, (Z)-5-(5-((1-(4-Carboxyphenyl)-3-methyl-5-oxo-1,5-dihydro-4H-pyrazol-4-ylidene)methyl)thiophen-2-yl)-2-chlorobenzoic acid], under setting [1], the IC50 was determined as 6 µM. As to `COc1cccc(NC(=O)c2ccc(/C=C3\C(=O)N(c4cccc(C(=O)O)c4)N=C3C)o2)c1` [NG-02-162/ NG-02-162C, (Z)-3-(4-((5-((3-methoxyphenyl)carbamoyl)furan-2-yl)methylene)-3-methyl-5-oxo-4,5-dihydro-1H-pyrazol-1-yl)benzoic acid], the IC50 under setting [1] was 8 µM and 11 µM. For `CCOC(=O)c1cccc(N2N=C(C)/C(=C/c3ccc(-c4ccc(Cl)c(C(=O)Nc5cccc(OC)c5)c4)o3)C2=O)c1` [NG-02-130, (Z)-Ethyl 3-(4-((5-(4-chloro-3-((3-methoxyphenyl)carbamoyl)phenyl)furan-2-yl)methylene)-3-methyl-5-oxo-4,5-dihydro-1H-pyrazol-1-yl)benzoate], under setting [1], the IC50 was found to be 3 µM.

On to `CC1=NN(c2ccc(S(N)(=O)=O)cc2)C(=O)/C1=C\c1ccc(-c2ccc(Cl)c(C(=O)NCC3CC3)c2)o1` [NG-03-212, (Z)-2-chloro-N-(cyclopropylmethyl)-5-(5-((3-methyl-5-oxo-1-(4-sulfamoylphenyl)-1,5-dihydro-4H-pyrazol-4-ylidene)methyl)furan-2-yl)benzamide], for which the IC50 under setting [1] worked out at 30 µM. For the compound `C=CCOC(=O)c1cccc(-c2ccc(/C=C3\C(=O)N(c4ccc(Cl)c(C(=O)O)c4)N=C3C)o2)c1` [compound 2922, reference compound], the IC50 under setting [2] is 6.2 µM and 5 µM. With `CC1=NN(c2cccc(C(=O)O)c2)C(=O)C1Cc1ccc(-c2ccc(Cl)c(C(=O)NCC3CC3)c2)o1` (centres unmarked) [NG-01-72, 3-(4-((5-(4-Chloro-3-((cyclopropylmethyl)carbamoyl)phenyl)furan-2-yl)methyl)-3-methyl-5-oxo-4,5-dihydro-1H-pyrazol-1-yl)benzoic acid], under setting [1], the IC50 was 10 µM. Take `COc1cccc(NC(=O)c2cc(-c3ccc(CC4C(=O)N(c5ccc(C(=O)O)cc5)N=C4C)o3)ccc2Cl)c1` (centres unmarked) [NG-03-188, 4-(4-((5-(4-Chloro-3-((3-methoxyphenyl)carbamoyl)phenyl)furan-2-yl)methyl)-3-methyl-5-oxo-4,5-dihydro-1H-pyrazol-1-yl)benzoic acid]: the IC50 under setting [1] was 12.5 µM and 6 µM. Consider `COc1cccc(NC(=O)c2cc(-c3ccc(/C=C4\C(=O)N(c5ccc(S(N)(=O)=O)cc5)N=C4C)o3)ccc2Cl)c1` [NG-03-196, (Z)-2-chloro-N-(3-methoxyphenyl)-5-(5-((3-methyl-5-oxo-1-(4-sulfamoylphenyl)-1,5-dihydro-4H-pyrazol-4-ylidene)methyl)furan-2-yl)benzamide], for which, under setting [1], the IC50 came out at 20 µM.

On to `CC1=NN(c2ccc(Cl)c(C(=O)O)c2)C(=O)/C1=C\c1ccc(-c2ccc([N+](=O)[O-])cc2Br)o1` [compound 0277, reference compound], for which the IC50 under setting [2] was 21 µM and 19 µM.

For the origin of these results see US11098033B2, “Ku inhibitors and their use” (INDIANA UNIVERSITY RESEARCH AND TECHNOLOGY CORPORATION, priority 2016, dated 2021).
